US20050059641A1, “Compositions and methods for treating and preventing cancer using analogs of vitamin D” (Aphios Corporation, priority 2003, published 2005)
“Also recorded” adds a separate entry of the source.

Assays:
[1] = system: PC3 cells (prostate cancer cells); experiment: 3H-thymidine incorporation assay, PC3; assay type: cell-based, human; conditions: PC-3 cells, 10^−6M
Excerpt: (§1) It is well known that secretory epithelial cells are the main sites for the development of cancers of the breast, prostate and various other organs.
(§2) In a study, investigators compared the growth-inhibitory effects of 25-OH-D3-3-BE and 1,25(OH)2D3 in several VDR-positive epithelial cells, e.g. keratinocytes (primary skin cells), MCF-7 cells (breast cancer cells), hormone-sensitive LNCaP and hormone-refractory PC3 cells (prostate cancer cells), and PZ-HPV-7 (papillovirus immortalized normal prostate cells) by using ^3H-thymidine incorporation assays (FIGS. 14-19).
Since 25-OH-D3-3-BE contains an ester bond, its hydrolysis by esterases in growing cells would produce equimolar amounts of bromoacetic acid (BAA) and 25-OH-D3 (see, FIG. 21).
Furthermore, fetal calf serum (FCS) contains many proteins, including vitamin D-binding protein, which potentially could absorb 25-OH-D3-3-BE before it reacts with VDR. Typically, the assays described herein were carried out in a media containing 10% FCS (after serum-depriving the cells for 15 hours).

[2] = system: MCF-7 cells (breast cancer cells); experiment: 3H-thymidine incorporation assay, MCF-7; assay type: cell-based; conditions: 10^−6M
Excerpt: as §1
It is well-established that the biological properties of 1,25(OH)2D3 and its analogs are mediated by their interaction with VDR.
as §2

vitamin D receptor, VDR = vitamin D receptor, VDR (Homo sapiens, UniProt P11473); experiment: cross-linking (affinity labeling) of the hormone-binding pocket of VDR; conditions: FIG. 13
Sequence of vitamin D receptor, VDR (P11473 whole entry): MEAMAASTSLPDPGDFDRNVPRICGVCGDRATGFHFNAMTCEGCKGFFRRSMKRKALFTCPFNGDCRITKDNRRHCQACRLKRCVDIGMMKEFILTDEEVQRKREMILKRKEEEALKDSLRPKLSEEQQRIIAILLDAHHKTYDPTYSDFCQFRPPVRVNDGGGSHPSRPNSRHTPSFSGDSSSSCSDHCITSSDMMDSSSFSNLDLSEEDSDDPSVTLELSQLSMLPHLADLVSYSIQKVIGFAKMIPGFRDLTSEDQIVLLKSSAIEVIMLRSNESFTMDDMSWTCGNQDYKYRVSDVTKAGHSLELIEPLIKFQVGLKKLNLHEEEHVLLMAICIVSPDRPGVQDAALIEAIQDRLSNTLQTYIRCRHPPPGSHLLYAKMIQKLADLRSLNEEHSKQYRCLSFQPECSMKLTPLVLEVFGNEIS
Excerpt: The present invention is directed, in part, to novel analogs of 1,25(OH)2D3, for example, 1,25(OH)2D3-3-BE and 25(OH)2D3-3-BE. The inventors have developed a novel affinity alkylating analog of 1,25(OH)2D3 which cross links 1,25(OH)2D3 to the hormone-binding pocket of VDR via a nucleophilic displacement reaction between a Cys residue in the hormone-binding pocket (Cys288) and a reactive bromoacetate group at the 3-position of 1,25(OH)2D3 (Ray R, Ray S., and Holick M. F. 1″,25-dihydroxyvitamin D3-3-deoxy-3$-bromoacetate, an affinity labeling analog of 1″,25-dihydroxyvitamin D3. (1994) Bioorg. Chem. 22 276-283; Ray R, Swamy N, MacDonald P N, Ray S, Haussler M R, and Holick M F. (1996) Affinity labeling of 1″,25-dihydroxyvitamin D3 receptor. J. Biol Chem 271 2012-2017; Swamy N, Kounine M, and Ray R. (1997) Identification of the subdomain in the nuclear receptor for the hormonal form of vitamin D3, 1″,25-dihydroxyvitamin D3, vitamin D receptor, that is covalently modified by an affinity labeling reagent. Arch Biochem Biophys 348 91-95; Chen M L, Ray S, Swamy N, Holick M F, and Ray R. Mechanistic studies to evaluate the enhanced anti-proliferation of human keratinocytes by 1α,25-dihydroxyvitamin D3-3-bromoacetate, a covalent modifier of vitamin D receptor, compared to 1α,25-dihydroxyvitamin D3. (1999) Arch. Biochem. Biophys. […]

[3] = in vivo toxicity study in CD-1 mice; parameters: Serum Calcium on day 12: unit not given here; conditions: for Body Weight on Day 12 / Serum Calcium on day 12 / Body Weight On Day 0: CD-1 mice; for Body Weight On Day 0: beginning of the experiment
Excerpt: Investigators completed an in vivo study to determine the toxicity of 25-OH-D3-3-BE at various doses in CD-1 mice. The animals (average weight ˜30 gms) were maintained with normal chow and water ad libitum. […] At the end of the experiment the animals were lightly anesthetized and blood collected after decapitation for serum calcium-analysis. […] Frequency of administration, body weights at the beginning and at the end of the experiment and serum calcium values are given in the accompanying Table 1.

[4] = system: keratinocytes (primary cells); experiment: 3H-thymidine incorporation assay, keratinocytes; assay type: cell-based, human; conditions: 10^−6M
Excerpt: as §1, §2

caspase-9 = experiment: Caspase Colorimetric assay, caspase-9; assay type: cell-based; conditions: PC3 cells, 10 nM, 14 hours
Procedure: Caspase-activity: There are several markers for apoptosis, and caspase activity is one of them; and their levels normally go up under apoptotic conditions. Investigators determined the levels of caspases 3, 8 and 9 by Caspase Colorimetric assay kits from R&D Systems (Minneapolis, Minn.) and used according to the manufacturer's instructions. Briefly, PC3 cells (1×10^6) were treated with 10 nM of 1,25(OH)2D3, 25-OH-D3 or 25-OH-D3-3-BE for 14 hours in culture medium (DMEM, 10% FBS and antibiotics). The cells were collected by centrifugation at 1000 RPM for 5 min. The cell pellet was lysed with lysis buffer, and the lysate was incubated on ice for 10 min. and centrifuged for 10,000 RPM for 5 min. Protein was estimated using Bradford protein estimation kit (BioRad). The enzymatic reactions were carried out in 96 well plate. For each reaction 100 μg lysate protein in 50 μl was incubated with 50 μl of 2×reaction buffer and 5 μl of caspase-3 or caspase-8 or caspase-9 calorimetric substrate for 2 h at 37° C. The absorbance was determined at 405 nm.

[5] = system: prostate tumor induced with PC-3 cells; experiment: in vivo effect in mice bearing prostate tumor induced with PC-3 cells; parameters: species or system male SCID mice; conditions: SCID mice with PC-3 tumor
Procedure: Sesame oil solutions (200 μl) of either 25-OH-D3 (10 μg) or 25-OH-D3-3-BE (13.2 μg, molar equivalent of 25-OH-D3) or vehicle were administered i.p. in alternate days for two weeks. […] At the end, mice were anesthetized, tumors were removed, and blood was collected. Tumors were embedded in paraffin and sections were made.

C=C1CCC(OC(=O)CBr)CC1=CC=C1CCCC2(C)C1CCC2C(C)CCCC(C)(C)O (stereo not drawn) [25-OH-D3-3-BE, 25-hydroxyvitamin D3-3-bromoacetate]
growth-inhibitory effect (3H-thymidine incorporation) [1]: stronger antiproliferative agent than 1,25(OH)2D3
lethal to the cells [1]: lethal
growth-inhibitory effect (3H-thymidine incorporation) [2]: antiproliferative
lethal to the cells [2]: not
cross-linking (labeling) of the hormone-binding pocket of VDR (vitamin D receptor, VDR): specifically cross-links to the hormone binding pocket of VDR; also recorded: specifically labels the hormone-binding pocket of VDR
Body Weight on Day 12 ([3]; 3.3 μg/kg intraperitoneally): 30.36 ± 1 grams
Serum Calcium on day 12 ([3]; 3.3 μg/kg intraperitoneally): 9.1 ± 0.2
Body Weight On Day 0 ([3]; 3.3 μg/kg intraperitoneally): 29 ± 0.6 grams
Body Weight on Day 12 ([3]; 33 μg/kg intraperitoneally): 32.9 ± 1.4 grams
Serum Calcium on day 12 ([3]; 33 μg/kg intraperitoneally): 9.4 ± 0.2
Body Weight On Day 0 ([3]; 33 μg/kg intraperitoneally): 31 ± 0.83 grams
Body Weight on Day 12 ([3]; 166.7 μg/kg intraperitoneally): 30.7 ± 1 grams
Serum Calcium on day 12 ([3]; 166.7 μg/kg intraperitoneally): 9.7 ± 0.1
Body Weight On Day 0 ([3]; 166.7 μg/kg intraperitoneally): 30.55 ± 0.7 grams
toxicity in vivo ([3]; mouse, dose as high as 166.7 μg/Kg): non-toxic
growth-inhibitory effect (3H-thymidine incorporation) [4]: antiproliferative
lethal to the cells [4]: not
Caspase-9 induction (caspase-9): induced
loss of body weight ([5]; 13.2 μg i.p. in alternate days for two weeks): no significant loss of body weight
Hematoxylin-Eosin staining of the tumor sections ([5]; 13.2 μg i.p. in alternate days for two weeks, versus vehicle (sesame oil)): considerably less cellular
condition of the mice at the end of treatment ([5]; 25-OH-D3 10 μg or 25-OH-D3-3-BE 13.2 μg (molar equivalent) i.p. in alternate days for two weeks): viable
